Measured values taken from US20240277722A1, “CANCER THERAPY USING A COMBINATION OF CDK7 INHIBITOR WITH AN ANTI-CANCER AGENT” (Aurigene Oncology Limited, priority 2021, published 2024).
Where “and” joins values, the source holds several entries; their conditions need not be identical. Equal entries are not always repeated. Where two headings read alike, the source gives them in different places.

Columns and labels:
MCF-7 cells = assay: MCF-7 cell proliferation, CTG reagent, 6-day treatment, single agents and combination (CompuSyn synergy analysis); format: cell-based
Procedure: The effect of 6-day compound treatment on cell proliferation was measured using CTG reagent.

Z-138 cells = assay: Z-138 cell proliferation, CTG reagent, 3-day treatment, single agents and combination (CompuSyn synergy analysis); format: cell-based
Procedure: Z-138 cells were treated with serial dilutions of Compound-44A (CDK7 inhibitor), serial dilutions of venetoclax individually and in combination for 3 days. The effect of 3-day compound treatment on cell proliferation was measured using CTG reagent. Percentage inhibition of cell proliferation in individual (Compound-44A, venetoclax) and combination treatments (Compound-44A+venetoclax) were analyzed using CompuSyn software to assess synergy.

CC(C)[C@H](C(=O)Nc1cc(C2CC2)[nH]n1)c1cccc(-c2ccc(NC(=O)/C=C/CN3CCOCC3)nc2)c1 (single isomer, unassigned) [Compound-44A]
% Inhibition of proliferation (MCF-7 cells; Compound-44A 0.006272 nM, Day-6): −4.1% and −1.7% and 4.8% | % Inhibition of proliferation (MCF-7 cells; Compound-44A 0.018817 nM, Day-6): 4.6% and 3.8% | % Inhibition of proliferation (MCF-7 cells; Compound-44A 0.056450 nM, Day-6): −11.5% and −2.9% and −2.8% | % Inhibition of proliferation (MCF-7 cells; Compound-44A 4.5725 nM, Day-6): 12.9% and 11.7% | % Inhibition of proliferation (MCF-7 cells; Compound-44A 13.7174 nM, Day-6): 44.3% and 47.5% | % Inhibition of proliferation (MCF-7 cells; Compound-44A 41.1523 nM, Day-6): 75.4% and 75.5% | % Inhibition of proliferation (MCF-7 cells; Compound-44A 123.4568 nM, Day-6): 84% | % Inhibition of proliferation (MCF-7 cells; Compound-44A 370.3704 nM, Day-6): 87.5% and 86.2% | % Inhibition of proliferation (MCF-7 cells; Compound-44A 1111.11 nM, Day-6): 106.1% | % Inhibition of proliferation (MCF-7 cells; Compound-44A 3333.333 nM, Day-6): 106.1% and 106.3% | % Inhibition of proliferation (MCF-7 cells; Compound-44A 10000 nM, Day-6): 106.4% and 106.3% | % Inhibition of proliferation (MCF-7 cells; Compound-44A 30000 nM, Day-6): 112.3% | inhibition at 0.0005 µM (MCF-7 cells; Homo sapiens, MCF7, 144 h, Fulvestrant 0 nM + Compound-44A 0.50 nM, 6 days): 4% | inhibition at 0.0015 µM (MCF-7 cells; Homo sapiens, MCF7, 144 h, Fulvestrant 0 nM + Compound-44A 1.50 nM, 6 days): 4% | inhibition at 0.041 µM (MCF-7 cells; Homo sapiens, MCF7, 144 h, Fulvestrant 0 nM + Compound-44A 41.00 nM, 6 days): 74% | inhibition at 0.123 µM (MCF-7 cells; Homo sapiens, MCF7, 144 h, Fulvestrant 0 nM + Compound-44A 123.00 nM, 6 days): 83% | inhibition at 0.3703 µM (MCF-7 cells; Homo sapiens, MCF7, 144 h, Fulvestrant 0 nM + Compound-44A 370.30 nM, 6 days): 87% | inhibition at 18.82 pM (MCF-7 cells; Homo sapiens, MCF7, Compound-44A 0.018817 nM, Day-6): 2.9% | inhibition at 0.0045725 µM (MCF-7 cells; Homo sapiens, MCF7, Compound-44A 4.5725 nM, Day-6): 13.6% | inhibition at 0.0137174 µM (MCF-7 cells; Homo sapiens, MCF7, Compound-44A 13.7174 nM, Day-6): 48.3% | inhibition at 0.0411523 µM (MCF-7 cells; Homo sapiens, MCF7, Compound-44A 41.1523 nM, Day-6): 71.6% | inhibition at 0.123457 µM (MCF-7 cells; Homo sapiens, MCF7, Compound-44A 123.4568 nM, Day-6): 81.6% | inhibition at 0.37037 µM (MCF-7 cells; Homo sapiens, MCF7, Compound-44A 370.3704 nM, Day-6): 88.5% | inhibition at 1.11111 µM (MCF-7 cells; Homo sapiens, MCF7, Compound-44A 1111.11 nM, Day-6): 105% | inhibition at 3.33333 µM (MCF-7 cells; Homo sapiens, MCF7, Compound-44A 3333.333 nM, Day-6): 106% | inhibition at 10 µM (MCF-7 cells; Homo sapiens, MCF7, Compound-44A 10000 nM, Day-6): 106% | inhibition at 30 µM (MCF-7 cells; Homo sapiens, MCF7, Compound-44A 30000 nM, Day-6): 112% | synergy in inhibiting the proliferation of breast cancer cell line MCF-7 (MCF-7 cells; in combination with fulvestrant): synergy | inhibition of proliferation in MCF-7 cells (MCF-7 cells; single agent, serial dilutions, 6 days): dose dependent inhibition of proliferation | % Inhibition of proliferation (Z-138 cells; Compound-44A 0.0015 μM, Day-3): −1.8% and 3.5% | % Inhibition of proliferation (Z-138 cells; Compound-44A 0.0046 μM, Day-3): 5.8% and 5.6% and −3.4% | % Inhibition of proliferation (Z-138 cells; Compound-44A 0.0412 μM, Day-3): 63.6% and 62.2% | % Inhibition of proliferation (Z-138 cells; Compound-44A 0.1235 μM, Day-3): 72.1% and 74.5% | % Inhibition of proliferation (Z-138 cells; Compound-44A 0.3704 μM, Day-3): 77.2% and 77.3% | % Inhibition of proliferation (Z-138 cells; Compound-44A 1.1111 μM, Day-3): 99.3% and 98.8% | % Inhibition of proliferation (Z-138 cells; Compound-44A 3.3333 μM, Day-3): 99.9% | % Inhibition of proliferation (Z-138 cells; Compound-44A 10.0000 μM, Day-3): 99.9% | inhibition at 0.0015 µM (Z-138 cells; Homo sapiens, Z-138, 72 h, Venetoclax 0.0 μM + Compound-44A 0.0015 μM, 3 days): 2% | inhibition at 0.0412 µM (Z-138 cells; Homo sapiens, Z-138, 72 h, Venetoclax 0.0 μM + Compound-44A 0.0412 μM, 3 days, read-out: % Inhibition in proliferation): 63% | inhibition at 0.1235 µM (Z-138 cells; Homo sapiens, Z-138, 72 h, Venetoclax 0.0 μM + Compound-44A 0.1235 μM, 3 days, read-out: % Inhibition in proliferation): 73% | inhibition at 0.3704 µM (Z-138 cells; Homo sapiens, Z-138, 72 h, Venetoclax 0.0 μM + Compound-44A 0.3704 μM, 3 days, read-out: % Inhibition in proliferation): 77% | inhibition at 1.1111 µM (Z-138 cells; Homo sapiens, Z-138, 72 h, Venetoclax 0.0 μM + Compound-44A 1.1111 μM, 3 days, read-out: % Inhibition in proliferation): 99% | inhibition at 0.0412 µM (Z-138 cells; Homo sapiens, Z-138, Compound-44A 0.0412 μM, Day-3, read-out: % Inhibition of proliferation): 62.1% | inhibition at 0.1235 µM (Z-138 cells; Homo sapiens, Z-138, Compound-44A 0.1235 μM, Day-3, read-out: % Inhibition of proliferation): 72.4% | inhibition at 0.3704 µM (Z-138 cells; Homo sapiens, Z-138, Compound-44A 0.3704 μM, Day-3, read-out: % Inhibition of proliferation): 76.6% | inhibition at 1.1111 µM (Z-138 cells; Homo sapiens, Z-138, Compound-44A 1.1111 μM, Day-3, read-out: % Inhibition of proliferation): 99.4% | inhibition at 3.3333 µM (Z-138 cells; Homo sapiens, Z-138, Compound-44A 3.3333 μM, Day-3): 100% | inhibition at 10 µM (Z-138 cells; Homo sapiens, Z-138, Compound-44A 10.0000 μM, Day-3): 100% | synergy in inhibiting the proliferation of leukemia cancer cell line Z-138 (Z-138 cells; in combination with venetoclax): synergy | inhibition of proliferation in Z-138 cells (Z-138 cells; single agent, serial dilutions, 3 days): dose dependent inhibition of proliferation
